Results published in patent US10800816B2 (Baxalta GmbH, priority 2012, dated 2020).
Where two headings read alike, the source gives them in different places. *1 amine or outer side, *2 acyl side, *3 side chain or, on linkers, in order; H or OH if unused. Where a SMILES comes first, the peptide text is derived from it. Bridges are numbered along the chain shown (N, C = ends). Side-chain parts run from the residue outwards. [ ]: non-standard residue; d: D form. The star is where a group is joined. X1 = CCCCCCCCCCCCCC(=O)NCCCOCCOCCOCCCN*; Suc = O=C(CCC(=O)[*:2])[*:1]; Tle = CC(C)(C)[C@H](N)C(=O)O; Hexanoyl = CCCCCC(=O)*; Aib = CC(C)(N)C(=O)O; Acm = CC(=O)NC*

Assays:
[1] = FIGURE 78W
Text: Table printed on a drawing sheet, FIGURE 78W

[2] = system: TFPI; assay: Extrinsic Tenase Inhibition assay | % Inhibition @ 2.5µM
[3] = FIGURE 78L
Text: Table printed on a drawing sheet, FIGURE 78L

[4] = FIGURE 78M
[5] = FIGURE 78K
Text: Table printed on a drawing sheet, FIGURE 78K

[6] = system: TFPI; assay: Progress Curves of Inhibition of FXa | % Inhibit (2.5µM)
Description: Head of the field: Progress Curves of Inhibition of FXa | % Inhibit (2.5µM)
“*” denotes negative controls.

[7] = system: Tissue Factor Pathway Inhibitor (TFPI); assay: IC50 ELISA | IC50 [nM]
Text: Table printed on a drawing sheet, FIGURE 78S
(§1) Head of the field: IC50 ELISA | IC50 [nM]

[8] = system: TFPI; assay: IC50 ELISA | Mean IC50 [nM]
[9] = system: Tissue Factor Pathway Inhibitor (TFPI); assay: IC50 ELISA | Mean IC50 [nM]
[10] = system: Tissue Factor Pathway Inhibitor (TFPI); assay: IC50 ELISA | IC50 [nM]; remark: listed apart in the source
Text: Table printed on a drawing sheet, FIGURE 78R
as §1

[11] = system: Tissue Factor Pathway Inhibitor (TFPI); assay: IC50 ELISA | Mean IC50 [nM]; remark: listed apart in the source
[12] = system: TFPI; assay: Extrinsic Tenase Inhibition by TFPI | % Inhibit (2.5μM )
[13] = system: TFPI; assay: Progress Curves of Inhibition of FXa | % Inhibit (2.5μM)
Description: Head of the field: Progress Curves of Inhibition of FXa | % Inhibit (2.5μM)

[14] = system: Tissue Factor Pathway Inhibitor (TFPI); assay: IC50 ELISA | Mean IC50 [nM]; remark: listed apart in the source
Text: Table printed on a drawing sheet, FIGURE 78V
(§2) Head of the field: IC50 ELISA | Mean IC50 [nM]

[15] = system: Tissue Factor Pathway Inhibitor (TFPI); assay: IC50 ELISA | IC50 [nM]; remark: listed apart in the source
Text: Table printed on a drawing sheet, FIGURE 78Q
as §1

[16] = system: Tissue Factor Pathway Inhibitor (TFPI); assay: IC50 ELISA | IC50 [nM]; remark: listed apart in the source
Text: Table printed on a drawing sheet, FIGURE 78N
as §1

[17] = system: TFPI; assay: IC50 ELISA | Mean IC50 [nM]; remark: listed apart in the source
[18] = system: TFPI; assay: IC50 ELISA | Mean IC50 [nM]; remark: listed apart in the source
[19] = system: TFPI; assay: IC50 ELISA | Mean IC50 [nM]; remark: listed apart in the source
Text: Table printed on a drawing sheet, FIGURE 78Z
as §2
First copying reader's note: Continued table: the first body row (45.67) belongs to a compound on the preceding sheet, the last row probably continues on the next sheet, and cells with several values list single replicates.

[20] = system: Tissue Factor Pathway Inhibitor (TFPI); assay: IC50 ELISA | Mean IC50 [nM]; remark: listed apart in the source

With “Ac-FQSKpNVHVPcYF-Hcy-RL-Aib-AKL-NH2 [JBT00002499]” the “24 h Human Plasma Stability | Mean Remaining [%]” value [1] was 40.70%.
In the case of “Ac-SRYKWFGMR[CDMKGC]TMSVWVKF-NH2 (SEQ ID NO: 1162) (Ac-SRYKWFGMRCDMKGCTMSVWVKF-NH2; disulfide 10-15; SMILES CSCC[C@H](NC(=O)CNC(=O)[C@H](Cc1ccccc1)NC(=O)[C@H](Cc1c[nH]c2ccccc12)NC(=O)[C@H](CCCCN)NC(=O)[C@H](Cc1ccc(O)cc1)NC(=O)[C@H](CCCNC(=N)N)NC(=O)[C@H](CO)NC(C)=O)C(=O)N[C@@H](CCCNC(=N)N)C(=O)N[C@H]1CSSC[C@@H](C(=O)N[C@H](C(=O)N[C@@H](CCSC)C(=O)N[C@@H](CO)C(=O)N[C@H](C(=O)N[C@@H](Cc2c[nH]c3ccccc23)C(=O)N[C@H](C(=O)N[C@@H](CCCCN)C(=O)N[C@@H](Cc2ccccc2)C(N)=O)C(C)C)C(C)C)[C@@H](C)O)NC(=O)CNC(=O)[C@H](CCCCN)NC(=O)[C@H](CCSC)NC(=O)[C@H](CC(=O)O)NC1=O) [JBT0470]”, the “Extrinsic Tenase Inhibition assay | % Inhibition @ […]” value [2] is reported as 2%.
For “Ac-FQSKpNVHVDGYFERL-Aib-AKLC(ME-400MA)-NH2 [JBT00002329]”, the “24 h Human Plasma Stability | Mean Remaining [%]” value [3] was 62.90%, the “24 h Mouse Plasma Stability | Mean Remaining [%]” value [3] was 81.80% and the “24 h Human Plasma Stability | Mean Remaining [%]” value [4] was 59.30%. The “24 h Mouse Plasma Stability | Mean Remaining [%]” value [4] was 56.70%, the “24 h Human Plasma Stability | Mean Remaining [%]” value [5] was 69.50% and the “24 h Mouse Plasma Stability | Mean Remaining [%]” value [5] was 69.50%.
With “Ac- KKLTGDWTYFWSKVIWGPGVIERQMPVSTFH KK-NH2 (SEQ ID NO: 3065) (Ac-KKLTGDWTYFWSKVIWGPGVIERQMPVSTFHKK-NH2) [JBT0177*]” the “Progress Curves of Inhibition of FXa | % Inhibit ([…])” value [6] was 4%.
For “Ac-FQSKpNVH-Tle-DaYFERL-Aib-A-Opc-L-NH2 [JBT00002447]”, the IC50 [7] was over 500 nM.
For “Ac-FQSK-Nmg-NVFVTGYFERL-Aib-AKL-NH2 [JBT00001585]”, the IC50 [8] was 15.1 nM.
For “FAM-Ttds-FQSK-Nmg-NVFVDGYFERL-Aib-AKL-NH2 [JBT00002262]”, the IC50 [9] was 13.4 nM.
“Palm-FQSKpNVH-Tle-DaYFERL-Aib-AKL-NH2 [JBT00002440]” showed an IC50 [10] of over 500 nM.
“Ac-FQSKpNVHVDGYFERL-Aib-AKLC(ME-120MA)-NH2 [JBT00002326]” gave an IC50 [11] of 9.3 nM.
With “Ac- KKPLAVQLHVSKRSKEMALARLYYKTSKK- NH2 (SEQ ID NO: 2129) (Ac-KKPLAVQLHVSKRSKEMALARLYYKTSKK-NH2) [JBT0229]” the “Extrinsic Tenase Inhibition by TFPI | % Inhibit ([…])” value [12] was 0% and the “Progress Curves of Inhibition of FXa | % Inhibit ([…])” value [13] was 0%.
For CC(=O)N[C@@H](Cc1ccccc1)C(=O)N[C@@H](CCC(N)=O)C(=O)N[C@@H](CO)C(=O)N[C@@H](CCCCN)C(=O)N1CCC[C@@H]1C(=O)N[C@@H](CC(N)=O)C(=O)N[C@H](C(=O)N[C@@H](Cc1c[nH]cn1)C(=O)N[C@H](C(=O)N[C@@H](CC(=O)O)C(=O)N[C@@H]1CSSC[C@@H](C(=O)N[C@@H](CCCNC(=N)N)C(=O)N[C@@H](CC(C)C)C(=O)NC(C)(C)C(=O)N[C@@H](C)C(=O)N[C@@H](CCCCN)C(=O)N[C@@H](CC(C)C)C(N)=O)NC(=O)[C@H](Cc2ccccc2)NC(=O)[C@H](Cc2ccc(O)cc2)NC1=O)C(C)(C)C)C(C)C [JBT00002495, Ac-FQSKpNVH-Tle-D[cYFC]RL-Aib-AKL-NH2] (Ac-FQSK[dP]NVH[Tle]D[dC]YFCRL[Aib]AKL-NH2; disulfide 11-14), the IC50 [14] was 3.36 nM.
Molecule “Ac-FQSKpNVH-Tle-DGYFERL-Aib-A-Nmk-L-NH2 [JBT00002425]” has an IC50 [15] of over 500 nM.
“Ac-FQVH-Tle-DGYFERL-Aib-AKL-NH2 [JBT00002428]” showed an IC50 [15] of over 500 nM.
In the case of “Ac-FQSKpNVH-Nmv-DGYFERL-Aib-AKLC(NEM)-NH2 [JBT00002387]”, the IC50 [16] is reported as over 500 nM.
“Ac-FQSK-Nmg-NVFVFGYFERLRAKL-NH2 [JBT00000500]” gave an IC50 [17] of 93.4 nM.
In the case of CCCCCCCCCCCCCC(=O)NCCCOCCOCCOCCCNC(=O)CCC(=O)NCCCC[C@H](NC(=O)[C@H](CC(C)C)NC(=O)[C@H](CCCCN)NC(=O)[C@H](C)NC(=O)C(C)(C)NC(=O)[C@H](CC(C)C)NC(=O)[C@H](CCCNC(=N)N)NC(=O)[C@H](CCC(=O)O)NC(=O)[C@H](Cc1ccccc1)NC(=O)[C@H](Cc1ccc(O)cc1)NC(=O)[C@@H](C)NC(=O)[C@H](CC(=O)O)NC(=O)[C@@H](NC(=O)[C@H](Cc1c[nH]cn1)NC(=O)[C@@H](NC(=O)[C@H](CSCNC(C)=O)NC(=O)[C@H]1CCCN1C(=O)[C@H](CCCCN)NC(=O)[C@H](CO)NC(=O)[C@H](CCC(N)=O)NC(=O)[C@H](Cc1ccccc1)NC(=O)CCCCC)C(C)C)C(C)(C)C)C(N)=O [JBT00002531, Hex-FQSKp-Cys(Acm)-VH-Tle-DaYFERL-Aib-AKLK(Ttds- Myr)--NH2] (Hexanoyl-FQSK[dP]C(Acm)VH[Tle]D[dA]YFERL[Aib]AKLK([Suc-X1])-NH2), the IC50 [18] is reported as 27.2 nM and the IC50 [19] is reported as 27 nM.
“Ac-FQSKpNVH-Tle-DcY-Bta--Hcy-RL-Aib-AKL-NH2 [JBT00002500]” gave an IC50 [20] of 5.26 nM.
